Measurements published in ChEMBL document CHEMBL2034857, “Discovery of the macrocycle (9E)-15-(2-(pyrrolidin-1-yl)ethoxy)-7,12,25-trioxa-19,21,24-triaza-tetracyclo[18.3.1.1(2,5).1(14,18)]hexacosa-1(24),2,4,9,14(26),15,17,20,22-nonaene (SB1578), a potent inhibitor of janus kinase 2/fms-like tyrosine kinase-3 (JAK2/FLT3) for the treatment of rheumatoid …” (J Med Chem, 2012).

Assays:
[1] = biological target: Non-receptor tyrosine-protein kinase TYK2 (Homo sapiens, UniProt P29597); assay: Inhibition of TYK2
[2] = biological target: Tyrosine-protein kinase JAK1 (Homo sapiens, UniProt P23458); assay: Inhibition of recombinant JAK1 using poly(Glu,Ala,Tyr) as substrate after 2 hrs by luminometric assay
[3] = biological target: T1, Receptor-type tyrosine-protein kinase FLT3 (Homo sapiens, UniProt P36888); assay: Inhibition of recombinant FLT3 using poly(Glu,Tyr) as substrate after 2 hrs by luminometric assay
T1 sequence (P36888 whole entry): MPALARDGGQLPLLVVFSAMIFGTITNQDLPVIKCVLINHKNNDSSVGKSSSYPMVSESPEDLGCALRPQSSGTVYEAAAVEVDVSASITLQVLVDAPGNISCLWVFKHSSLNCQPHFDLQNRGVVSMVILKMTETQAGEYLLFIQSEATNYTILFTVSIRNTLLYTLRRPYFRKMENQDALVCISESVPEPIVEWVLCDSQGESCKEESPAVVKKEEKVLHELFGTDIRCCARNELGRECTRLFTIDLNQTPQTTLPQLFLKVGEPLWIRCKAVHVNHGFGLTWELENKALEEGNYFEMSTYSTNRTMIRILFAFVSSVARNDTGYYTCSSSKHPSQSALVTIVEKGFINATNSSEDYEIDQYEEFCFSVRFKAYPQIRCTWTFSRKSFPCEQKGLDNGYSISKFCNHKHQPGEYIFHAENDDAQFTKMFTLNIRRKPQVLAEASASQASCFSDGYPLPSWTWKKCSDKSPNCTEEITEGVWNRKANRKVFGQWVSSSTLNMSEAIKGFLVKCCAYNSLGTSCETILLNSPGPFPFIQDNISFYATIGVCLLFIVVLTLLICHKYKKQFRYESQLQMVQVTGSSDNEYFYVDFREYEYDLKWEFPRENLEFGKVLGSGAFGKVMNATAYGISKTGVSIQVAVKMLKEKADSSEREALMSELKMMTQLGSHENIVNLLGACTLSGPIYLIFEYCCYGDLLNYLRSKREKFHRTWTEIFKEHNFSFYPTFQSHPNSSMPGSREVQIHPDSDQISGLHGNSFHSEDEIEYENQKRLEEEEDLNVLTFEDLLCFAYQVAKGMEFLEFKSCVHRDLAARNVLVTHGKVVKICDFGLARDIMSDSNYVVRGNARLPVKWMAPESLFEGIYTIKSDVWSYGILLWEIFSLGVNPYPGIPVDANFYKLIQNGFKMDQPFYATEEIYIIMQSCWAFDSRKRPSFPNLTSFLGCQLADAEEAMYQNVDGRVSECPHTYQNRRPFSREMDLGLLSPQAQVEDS

[4] = biological target: Tyrosine-protein kinase JAK2 (Homo sapiens, UniProt O60674); assay: Inhibition of recombinant JAK2 using poly(Glu,Ala,Tyr) as substrate after 2 hrs by luminometric assay
[5] = biological target: Cyclin-dependent kinase 2 (Homo sapiens, UniProt P24941); assay: Inhibition of recombinant CDK2 using RbING as substrate after 2 hrs by luminometric assay
[6] = biological target: T2, Tyrosine-protein kinase JAK3 (Homo sapiens, UniProt P52333); assay: Inhibition of recombinant JAK3 using poly(Glu,Ala,Tyr) as substrate after 2 hrs by luminometric assay
T2 sequence (P52333 whole entry): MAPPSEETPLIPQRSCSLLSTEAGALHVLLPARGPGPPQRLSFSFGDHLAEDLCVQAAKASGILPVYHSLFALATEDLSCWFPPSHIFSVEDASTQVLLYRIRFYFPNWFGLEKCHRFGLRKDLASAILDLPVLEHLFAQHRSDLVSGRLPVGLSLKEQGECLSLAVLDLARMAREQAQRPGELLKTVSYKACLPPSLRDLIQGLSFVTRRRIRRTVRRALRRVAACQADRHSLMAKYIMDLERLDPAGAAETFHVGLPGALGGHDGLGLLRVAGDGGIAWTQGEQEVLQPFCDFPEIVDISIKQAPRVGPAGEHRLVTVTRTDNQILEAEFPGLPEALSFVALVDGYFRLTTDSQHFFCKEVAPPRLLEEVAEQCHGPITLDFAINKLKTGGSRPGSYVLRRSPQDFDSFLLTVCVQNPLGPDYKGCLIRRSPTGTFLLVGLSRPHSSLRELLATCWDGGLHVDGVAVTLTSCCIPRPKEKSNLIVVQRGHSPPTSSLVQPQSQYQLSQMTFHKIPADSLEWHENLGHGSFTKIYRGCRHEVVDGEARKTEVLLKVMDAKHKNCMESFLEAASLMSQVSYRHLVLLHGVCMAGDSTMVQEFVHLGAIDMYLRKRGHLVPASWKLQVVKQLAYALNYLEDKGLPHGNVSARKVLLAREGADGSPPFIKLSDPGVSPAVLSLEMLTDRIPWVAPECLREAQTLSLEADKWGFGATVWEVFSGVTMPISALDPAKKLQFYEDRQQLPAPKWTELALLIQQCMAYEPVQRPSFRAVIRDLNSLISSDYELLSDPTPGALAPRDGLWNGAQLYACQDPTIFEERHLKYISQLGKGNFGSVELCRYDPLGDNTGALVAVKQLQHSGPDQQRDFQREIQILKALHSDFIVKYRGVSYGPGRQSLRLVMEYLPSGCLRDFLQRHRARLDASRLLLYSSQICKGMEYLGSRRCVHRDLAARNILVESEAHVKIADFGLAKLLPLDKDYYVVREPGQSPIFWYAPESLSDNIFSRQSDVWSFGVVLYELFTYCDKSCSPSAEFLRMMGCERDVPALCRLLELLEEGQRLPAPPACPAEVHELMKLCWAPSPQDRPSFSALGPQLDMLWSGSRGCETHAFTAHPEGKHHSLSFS

[7] = tested on: HL-60; assay: Antiproliferative activity against human HL60 cells expressing FLT3 after 48 hrs by luciferase reporter gene assay; assay type: functional; details: HL-60, 48 h
[8] = Half life in human liver microsomes; assay type: ADME, Microsome
[9] = biological target: Cytochrome P450 3A4 (Homo sapiens, UniProt P08684); assay: Inhibition of CYP3A4 in human liver microsomes using testosterone as substrate by LC-MS/MS analysis; assay type: ADME, Microsome
[10] = tested on: BaF3; assay: Antiproliferative activity against mouse BAF3 cells expressing JAK2 V617F mutant after 48 hrs by luciferase reporter gene assay; assay type: functional; details: BaF3, 48 h
[11] = Kinetic solubility in PBS buffer at pH 7; assay type: physicochemical; details: read-out: Kinetic_solubility
[12] = Half life in mouse liver microsomes; assay type: ADME, Microsome
[13] = biological target: Voltage-gated inwardly rectifying potassium channel KCNH2 (Homo sapiens, UniProt Q12809); assay: Displacement of dofetilide from human ERG
[14] = biological target: Cytochrome P450 2D6 (Homo sapiens, UniProt P10635); assay: Inhibition of CYP2D6 in human liver microsomes using dextromethorphan as substrate by LC-MS/MS analysis; assay type: ADME, Microsome
[15] = Selectivity ratio of IC50 for recombinant CDK2 to IC50 for recombinant JAK2
[16] = Selectivity ratio of IC50 for recombinant JAK1 to IC50 for recombinant JAK2
[17] = Selectivity ratio of IC50 for recombinant JAK3 to IC50 for recombinant JAK2

Sequence of Tyrosine-protein kinase JAK2 (O60674 whole entry): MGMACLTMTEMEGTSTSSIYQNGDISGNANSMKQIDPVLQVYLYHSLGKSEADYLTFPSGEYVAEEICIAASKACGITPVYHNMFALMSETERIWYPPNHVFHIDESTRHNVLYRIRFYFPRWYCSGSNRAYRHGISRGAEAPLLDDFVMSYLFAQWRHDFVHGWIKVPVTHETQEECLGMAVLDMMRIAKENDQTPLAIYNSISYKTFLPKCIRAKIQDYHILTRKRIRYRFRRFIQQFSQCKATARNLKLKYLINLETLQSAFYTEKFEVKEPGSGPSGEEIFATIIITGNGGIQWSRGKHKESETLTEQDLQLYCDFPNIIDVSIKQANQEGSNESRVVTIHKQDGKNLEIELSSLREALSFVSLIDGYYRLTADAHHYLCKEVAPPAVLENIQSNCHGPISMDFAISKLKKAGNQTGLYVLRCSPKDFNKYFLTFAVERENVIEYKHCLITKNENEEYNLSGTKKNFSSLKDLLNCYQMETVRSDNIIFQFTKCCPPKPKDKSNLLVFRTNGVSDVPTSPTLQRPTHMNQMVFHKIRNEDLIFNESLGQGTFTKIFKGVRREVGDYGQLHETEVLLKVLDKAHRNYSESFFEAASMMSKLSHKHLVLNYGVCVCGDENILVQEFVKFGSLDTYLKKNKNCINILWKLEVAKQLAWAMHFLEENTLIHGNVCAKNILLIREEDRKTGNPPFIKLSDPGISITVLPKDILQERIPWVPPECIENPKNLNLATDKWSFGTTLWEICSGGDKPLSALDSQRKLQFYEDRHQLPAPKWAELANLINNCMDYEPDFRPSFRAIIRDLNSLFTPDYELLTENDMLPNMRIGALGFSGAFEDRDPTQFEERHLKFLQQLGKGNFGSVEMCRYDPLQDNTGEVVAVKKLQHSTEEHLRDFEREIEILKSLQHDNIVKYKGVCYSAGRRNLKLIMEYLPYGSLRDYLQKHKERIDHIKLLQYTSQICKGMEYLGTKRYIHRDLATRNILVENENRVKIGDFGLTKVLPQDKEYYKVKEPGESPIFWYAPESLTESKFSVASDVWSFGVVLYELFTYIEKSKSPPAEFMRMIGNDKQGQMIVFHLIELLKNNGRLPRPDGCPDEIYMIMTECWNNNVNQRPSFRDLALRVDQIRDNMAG
Sequence of Tyrosine-protein kinase JAK1 (P23458 whole entry): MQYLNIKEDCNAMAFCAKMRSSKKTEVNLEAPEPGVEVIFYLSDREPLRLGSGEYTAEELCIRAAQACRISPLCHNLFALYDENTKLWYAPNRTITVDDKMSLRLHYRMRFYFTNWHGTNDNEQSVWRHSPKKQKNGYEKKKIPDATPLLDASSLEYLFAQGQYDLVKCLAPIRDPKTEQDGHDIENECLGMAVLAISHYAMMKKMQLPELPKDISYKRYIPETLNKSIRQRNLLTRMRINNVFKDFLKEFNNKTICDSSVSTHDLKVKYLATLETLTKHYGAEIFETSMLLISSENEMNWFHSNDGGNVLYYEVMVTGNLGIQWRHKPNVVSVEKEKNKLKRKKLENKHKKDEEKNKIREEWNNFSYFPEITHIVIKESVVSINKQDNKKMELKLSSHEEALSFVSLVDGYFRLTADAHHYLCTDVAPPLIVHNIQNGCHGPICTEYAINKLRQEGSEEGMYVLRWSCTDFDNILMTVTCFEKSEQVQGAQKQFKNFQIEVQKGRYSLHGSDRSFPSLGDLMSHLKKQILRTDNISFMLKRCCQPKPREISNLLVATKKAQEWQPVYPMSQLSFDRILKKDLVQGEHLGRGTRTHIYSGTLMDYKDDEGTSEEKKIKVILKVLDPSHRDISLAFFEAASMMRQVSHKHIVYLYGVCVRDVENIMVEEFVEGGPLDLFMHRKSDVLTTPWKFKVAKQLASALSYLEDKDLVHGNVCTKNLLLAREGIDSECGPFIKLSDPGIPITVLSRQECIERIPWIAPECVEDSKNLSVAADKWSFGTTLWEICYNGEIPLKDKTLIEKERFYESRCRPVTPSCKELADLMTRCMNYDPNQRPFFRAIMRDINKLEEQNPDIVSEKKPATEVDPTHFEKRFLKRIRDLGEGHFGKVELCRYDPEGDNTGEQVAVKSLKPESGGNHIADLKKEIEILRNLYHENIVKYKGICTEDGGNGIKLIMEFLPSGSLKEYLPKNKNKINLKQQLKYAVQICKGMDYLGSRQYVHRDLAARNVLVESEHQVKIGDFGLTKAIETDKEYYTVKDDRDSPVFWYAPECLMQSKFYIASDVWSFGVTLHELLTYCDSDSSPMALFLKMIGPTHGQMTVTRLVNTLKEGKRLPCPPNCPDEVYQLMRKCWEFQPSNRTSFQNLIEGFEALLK
Sequence of Non-receptor tyrosine-protein kinase TYK2 (P29597 whole entry): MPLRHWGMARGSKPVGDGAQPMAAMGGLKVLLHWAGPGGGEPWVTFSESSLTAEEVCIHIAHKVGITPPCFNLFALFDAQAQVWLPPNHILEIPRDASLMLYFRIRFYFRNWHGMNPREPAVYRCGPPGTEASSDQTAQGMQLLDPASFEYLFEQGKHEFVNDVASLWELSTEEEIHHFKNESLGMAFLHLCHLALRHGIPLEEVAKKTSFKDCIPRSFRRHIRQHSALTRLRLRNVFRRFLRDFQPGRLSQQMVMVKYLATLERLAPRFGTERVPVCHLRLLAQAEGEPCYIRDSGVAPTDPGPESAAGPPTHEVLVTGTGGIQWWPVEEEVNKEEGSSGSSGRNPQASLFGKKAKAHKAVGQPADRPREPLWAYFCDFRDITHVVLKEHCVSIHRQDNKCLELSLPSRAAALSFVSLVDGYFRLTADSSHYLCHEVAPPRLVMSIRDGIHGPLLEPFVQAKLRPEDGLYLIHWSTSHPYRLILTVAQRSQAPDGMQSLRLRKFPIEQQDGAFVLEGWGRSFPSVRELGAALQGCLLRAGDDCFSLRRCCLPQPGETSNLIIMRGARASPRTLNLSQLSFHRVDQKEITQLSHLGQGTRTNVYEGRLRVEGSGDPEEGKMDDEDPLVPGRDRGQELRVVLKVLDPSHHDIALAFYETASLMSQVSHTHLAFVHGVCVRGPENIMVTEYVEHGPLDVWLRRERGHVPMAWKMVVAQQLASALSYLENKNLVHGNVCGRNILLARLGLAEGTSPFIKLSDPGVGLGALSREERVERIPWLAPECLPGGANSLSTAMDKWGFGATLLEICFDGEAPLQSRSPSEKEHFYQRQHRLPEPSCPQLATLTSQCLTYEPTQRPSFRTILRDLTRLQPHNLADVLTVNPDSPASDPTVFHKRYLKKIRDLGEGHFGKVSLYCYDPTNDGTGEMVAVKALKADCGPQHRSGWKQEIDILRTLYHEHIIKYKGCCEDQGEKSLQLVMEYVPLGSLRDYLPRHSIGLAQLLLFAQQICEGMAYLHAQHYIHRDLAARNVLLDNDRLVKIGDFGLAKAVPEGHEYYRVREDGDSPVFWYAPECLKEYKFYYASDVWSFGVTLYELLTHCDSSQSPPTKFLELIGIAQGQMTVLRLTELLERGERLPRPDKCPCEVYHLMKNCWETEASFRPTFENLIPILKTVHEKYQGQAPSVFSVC
Sequence of Cytochrome P450 3A4 (P08684 whole entry): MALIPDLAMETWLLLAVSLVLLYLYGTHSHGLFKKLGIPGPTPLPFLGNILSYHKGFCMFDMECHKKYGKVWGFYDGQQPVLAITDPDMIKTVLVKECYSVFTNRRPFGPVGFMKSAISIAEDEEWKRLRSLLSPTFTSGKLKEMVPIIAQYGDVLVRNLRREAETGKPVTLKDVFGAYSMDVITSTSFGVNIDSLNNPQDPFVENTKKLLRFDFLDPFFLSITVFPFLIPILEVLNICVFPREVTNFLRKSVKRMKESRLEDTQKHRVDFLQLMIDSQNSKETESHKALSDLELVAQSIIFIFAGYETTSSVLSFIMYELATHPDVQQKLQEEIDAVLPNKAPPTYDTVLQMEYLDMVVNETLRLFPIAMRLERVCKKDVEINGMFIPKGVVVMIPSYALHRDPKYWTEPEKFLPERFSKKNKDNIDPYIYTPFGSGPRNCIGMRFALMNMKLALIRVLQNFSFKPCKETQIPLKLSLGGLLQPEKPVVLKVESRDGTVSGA
Sequence of Cytochrome P450 2D6 (P10635 whole entry): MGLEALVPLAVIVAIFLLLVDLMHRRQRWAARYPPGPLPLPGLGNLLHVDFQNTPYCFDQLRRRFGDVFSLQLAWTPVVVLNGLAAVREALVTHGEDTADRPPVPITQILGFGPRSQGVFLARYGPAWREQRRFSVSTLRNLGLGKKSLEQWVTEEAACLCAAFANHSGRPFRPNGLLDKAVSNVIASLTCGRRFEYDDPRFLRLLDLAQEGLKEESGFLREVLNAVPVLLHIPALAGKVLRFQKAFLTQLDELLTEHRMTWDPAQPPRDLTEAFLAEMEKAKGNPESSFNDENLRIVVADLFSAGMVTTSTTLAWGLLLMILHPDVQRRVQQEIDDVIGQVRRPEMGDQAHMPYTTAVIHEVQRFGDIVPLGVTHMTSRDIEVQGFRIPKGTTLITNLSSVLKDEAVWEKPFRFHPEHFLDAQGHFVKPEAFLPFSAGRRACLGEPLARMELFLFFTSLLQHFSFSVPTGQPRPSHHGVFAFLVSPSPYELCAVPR

| Compound | IC50 [1] | IC50 [2] | IC50 [3] | IC50 [4] | IC50 [5] | IC50 [6] | GI50 [7] | half-life [8] | IC50 [9] | GI50 [10] | solubility kinetic [11] | half-life [12] | IC50 [14] | Ratio IC50 [15] | Ratio IC50 [16] | Ratio IC50 [17] | IC50 [13] |
| --- | --- | --- | --- | --- | --- | --- | --- | --- | --- | --- | --- | --- | --- | --- | --- | --- | --- |
| C1=C2COC/C=C/COCc3cccc(c3)Nc3nccc(n3)C(=C1)O2 (mixture of isomers) | 670 nM | 8 µM | 620 nM | 220 nM | 680 nM | > 10 µM | – | – | – | – | – | – | – | – | – | – | – |
| CN1C/C=C/COCc2cncc(c2)-c2ccnc(n2)Nc2cccc(c2)C1 (mixture of isomers) | 5900 nM | > 10 µM | 4800 nM | > 10000 nM | 420 nM | > 10 µM | – | – | – | – | – | – | – | – | – | – | – |
| CN1C/C=C/CCn2ccc3ccc(cc32)-c2ccnc(n2)Nc2cccc(c2)C1 (mixture of isomers) | 1500 nM | 1 µM | 93 nM | – | 77 nM | > 10 µM | – | – | – | – | – | – | – | – | – | – | – |
| CN1C/C=C/COCC2CCCN(C2)c2ccnc(n2)Nc2cccc(c2)C1 (mixture of isomers) | > 10000 nM | > 10 µM | > 10000 nM | > 10000 nM | > 10000 nM | > 10 µM | – | – | – | – | – | – | – | – | – | – | – |
| C1=C/COCc2cncc(c2)-c2ccnc(n2)Nc2cccc(c2)COC/1 | 950 nM | > 10 µM | 560 nM | 930 nM | 200 nM | > 10 µM | – | – | – | – | – | – | – | – | – | – | – |
| C1=C/Cn2ccc3ccc(cc32)-c2ccnc(n2)Nc2cccc(c2)COC/1 (mixture of isomers) | – | 4.8 µM | 73 nM | – | 83 nM | > 10 µM | – | – | – | – | – | – | – | – | – | – | – |

The next lines start with results.

| IC50 [1] | IC50 [2] | IC50 [3] | IC50 [4] | IC50 [5] | IC50 [6] | GI50 [7] | half-life [8] | IC50 [9] | GI50 [10] | solubility kinetic [11] | half-life [12] | IC50 [14] | Ratio IC50 [15] | Ratio IC50 [16] | Ratio IC50 [17] | Compound | IC50 [13] |
| --- | --- | --- | --- | --- | --- | --- | --- | --- | --- | --- | --- | --- | --- | --- | --- | --- | --- |
| 440 nM | 5.1 µM | 17 nM | 370 nM | 2500 nM | > 10 µM | – | – | – | – | – | – | – | – | – | – | Cc1cnc2nc1-c1ccc3ccn(c3c1)C/C=C/COCc1cc(ccc1OCCN1CCCC1)N2 (mixture of isomers) | – |
| 630 nM | > 10 µM | 63 nM | 290 nM | 3200 nM | 1 µM | – | – | – | – | – | – | – | – | – | – | C1=C/COCc2cc(ccc2OCCN2CCCC2)Nc2nccc(n2)-c2cncc(c2)COC/1 (mixture of isomers) | – |
| 32 nM | 0.42 µM | 24 nM | 7.3 nM | 2900 nM | 0.65 µM | 200 nM | > 60 min | > 10 µM | 55 nM | 154 µg/mL | 27 min | > 10 µM | – | – | – | C1=C2COC/C=C/COCc3cc(ccc3OCCN3CCCC3)Nc3nccc(n3)C(=C1)S2 (mixture of isomers) | 7.2 µM |
| 710 nM | 0.65 µM | 120 nM | – | 1600 nM | > 10 µM | – | – | – | – | – | – | – | – | – | – | CN1C/C=C/COCC2=CC=C(O2)c2ccnc(n2)Nc2ccc(OCCN3CCCC3)c(c2)C1 (mixture of isomers) | – |
| 120 nM | 3 µM | 48 nM | 67 nM | > 10000 nM | 8.8 µM | 710 nM | > 60 min | > 10 µM | – | > 250 µg/mL | 18 min | > 10 µM | > 149 | 45 | 131 | C1=C/COCc2cc(ccc2OCCN2CCCC2)Nc2nccc(n2)-c2coc(c2)COC/1 (mixture of isomers) | – |
